Test results: patent US4059693A, “Analgesic action of substance P” (priority 1976, dated 1977)

Legend:
Male Swiss Webster mice = settings: mouse, in vivo; for Reaction times with naloxone: ip
mice [1] = test: Hot plate analgesiometer in mice, intraperitoneal injection; type: in vivo
Procedure: The drug was administered by intraperitoneal injection, employing the solution prepared according to Example 1. Three groups of mice, 5 animals per group, received a single injection ip of Substance P or vehicle alone. Mice weighed 30 grams each. Group 1: Substance P, 5 microgram per mouse ([…])([…]) Group 2: Substance P, 1 microgram per mouse (1 × 10^-6 g)(33.3 microgram/kg) Group 3: Vehicle alone
On the day before the animals were to be given the drug, each animal was tested on the hot plate analgesiometer for its reaction time (the time in seconds after placing on the hot plate until the animal jumps). The next day animals were given the injection and then tested on the analgesiometer at times of 30, 60, 90, 120 and 150 minutes after the injection. From the reaction times observed the control reaction time determined the previous day was subtracted. The reaction times given in the table below are the increase in reaction time (over the control value) due to the injection.

mice [2] = test: Reaction time in mice after intravenous injection in the tail vein; type: in vivo; settings: 50 ng iv tail vein, 90 minutes
Procedure: 50 ng of Substance P was administered peripherally to mice by intravenous injection in the tail vein. The mean reaction time at 90 minutes was 6.2 seconds.

mammals = test: Analgesic potency, addictiveness and side-effects with morphine sulfate as standard of reference; type: in vivo
test animals = test: Time course of analgesia in test animals; type: in vivo
Description: The dosage rate is selected so as to provide analgesia for a useful minimum period of time, while at the same time avoiding any impact of sudden severe lowering of blood pressure.

blood pressure = settings: intravenous administration described in the prior art; cited from earlier work
anaesthetized rats = settings: injected into anaesthetized rats; cited from earlier work
human blister base = settings: isolated, not pure compound per the patent; cited from earlier work
brain opiate receptor = settings: in vitro; cited from earlier work
[3] = cited from earlier work

CN1CC[C@]23c4c5ccc(O)c4O[C@H]2[C@@H](O)C=C[C@H]3[C@H]1C5.O=S(=O)(O)O [MS, morphine sulfate, reference compound]
Reaction times with naloxone (Male Swiss Webster mice): not increased during the first measurement, but gradually became longer

CSCC[C@H](NC(=O)[C@H](CC(C)C)NC(=O)CNC(=O)[C@H](Cc1ccccc1)NC(=O)[C@H](Cc1ccccc1)NC(=O)[C@H](CCC(N)=O)NC(=O)[C@H](CCC(N)=O)NC(=O)[C@@H]1CCCN1C(=O)[C@H](CCCCN)NC(=O)[C@@H]1CCCN1C(=O)[C@@H](N)CCCNC(=N)N)C(N)=O [Substance P, H-Arg-Pro-Lys-Pro-Gln-Gln-Phe-Phe-Gly-Leu-Met-NH2]
Reaction Time Over Controls (mice [1]; Group 1: (5 × 10^-9 g)(0.167 microgram/kg) ip, 30 min): 7.04 ± 1.91 s
Reaction Time Over Controls (mice [1]; Group 1: (5 × 10^-9 g)(0.167 microgram/kg) ip, 60 min): 6.56 ± 2.4 s
Reaction Time Over Controls (mice [1]; Group 1: (5 × 10^-9 g)(0.167 microgram/kg) ip, 90 min): 8.36 ± 3.2 s
Reaction Time Over Controls (mice [1]; Group 1: (5 × 10^-9 g)(0.167 microgram/kg) ip, 120 min): 6.24 ± 1.4 s
Reaction Time Over Controls (mice [1]; Group 1: (5 × 10^-9 g)(0.167 microgram/kg) ip, 150 min): 3.84 ± 2.12 s
Reaction Time Over Controls (mice [1]; Group 2: 1 microgram per mouse (33.3 microgram/kg) ip, 30 min): 7.6 ± 2.68 s
Reaction Time Over Controls (mice [1]; Group 2: 1 microgram per mouse (33.3 microgram/kg) ip, 60 min): 11.44 ± 3.49 s
Reaction Time Over Controls (mice [1]; Group 2: 1 microgram per mouse (33.3 microgram/kg) ip, 90 min): 10.96 ± 1.33 s
Reaction Time Over Controls (mice [1]; Group 2: 1 microgram per mouse (33.3 microgram/kg) ip, 120 min): 8.2 ± 3.18 s
Reaction Time Over Controls (mice [1]; Group 2: 1 microgram per mouse (33.3 microgram/kg) ip, 150 min): 4.08 ± 1.26 s
Increases in reaction times compared to the vehicle controls (Student t test) (mice [1]; groups 1 and 2, 150 min): not statistically significant
Increases in reaction times compared to the vehicle controls (Student t test) (mice [1]; groups 1 and 2, all times except 150 min): significant
Reaction times compared to those of controls (Male Swiss Webster mice): significantly increased
Reaction times with naloxone (Male Swiss Webster mice): not increased during the first measurement, but gradually became longer
Mean reaction time (mice [2]): 6.2 s
Addictiveness (mammals; in vivo): nonaddictive
Side-effects (mammals; in vivo): relatively free from significant side-effects
Potency as an analgesic relative to morphine sulfate (mammals; morphine sulfate as standard of reference): about 450 times
Commencement of analgesia following administration (test animals): 20 to 30 min
Time to peak effectiveness of analgesia (test animals): about 1.5 hours
Duration of sharp lowering of blood pressure (blood pressure): ≤ 7 min
Sialogogic activity (anaesthetized rats): stimulated salivary secretion
Algogen (pain-producing) activity (human blister base): very potent algogen

Lipotropin C-Fragment: the entire 61-91 LPH fragment, extracted from pig pituitary (YGGFMTSEKSQTPLVTLFKNAIVKNAHKKGQ; Beta-endorphin; UniProt P01192 237-267, looked up)
Potency relative to methionine enkephalin in inhibiting binding of naloxone and dihydromorphine (brain opiate receptor): approximately thirty

Tyr-Gly-Gly-Phe-Met [Met-Enk]
Analgesic activity in vivo [3]: does not exhibit significant analgesic activity in vivo
